For 79 molecules, RP-LC retention time results are on record in the METLIN SMRT retention time set (Domingo-Almenara et al. 2019).

This data set can be described thus: gradient 5% acetonitrile 3 min, to 50% in 2 min, to 85% in 15 min, held 3 min, 100 µL/min. Conditions: column: Zorbax Extend-C18 2.1 x 50 mm; eluents: water / acetonitrile, 0.1% formic acid. The essentials: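 The system's dead and dwell volumes were 40 μL and 900 μL, with a Zorbax Extend-C18 column (2.1 × 50 mm, 1.8 μm) run at 100 μL/min in water and acetonitrile containing 0.1% formic acid each. Pure standards were analyzed in mixtures of ~100 molecules by HPLC–quadrupole time-of-flight mass spectrometry in positive and negative ionization mode. Retention time was assigned from computationally picked, manually inspected adduct peaks.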
Take `CCOC(=O)COc1cc(-c2ccc(F)cc2)nc2ccc(NC(=O)c3ccco3)cc12`: the RP-LC retention time is 798 s.

For `Cc1cc(C(=O)NCC(C)C)c2cccc(Cl)c2n1`, the RP-LC retention time came out at 770 s.

`COc1ccc(CNc2nc3ccncc3n(C(C)C)c2=O)cc1OC`: the RP-LC retention time amounted to 550 s.

`Cc1nn2c(N3CCN(c4ccccn4)CC3)cc(C(C)(C)C)nc2c1-c1ccc(F)cc1` yielded an RP-LC retention time of 1090 s.

With `Cn1c(=O)c(N2CCN(C(=O)c3ccc(Cl)cc3)CC2)nc2ccncc21`, the RP-LC retention time was determined as 560 s.

`COc1cc(OC)cc(C(=O)NC2CCN(c3cc(-c4ccccc4)[nH]n3)C2)c1` (centres undefined) had an RP-LC retention time of 710 s.

Take `Cc1ccn2c(NC(=O)C(C)(C)C)c(-c3ccc(F)cc3)nc2c1`: the RP-LC retention time amounted to 648 s.

In turn, `COC(=O)c1cc(C)nc2c1c(=O)n(Cc1cccc(OC)c1)c(=O)n2C` registered an RP-LC retention time of 970 s.

With `O=C(Cc1c(Sc2ccccc2)[nH]c2ccccc12)NCCN1CCOCC1`, the RP-LC retention time was 654 s.

Take `O=C([C@H]1C[C@@H](F)CN1C(=O)Nc1cccc(Cl)c1)N1CCOCC1`: the RP-LC retention time worked out at 653 s.

`Cc1nn(C)c(C)c1CNC(=O)CN1CCN(Cc2ccc(F)cc2)C1=O` showed an RP-LC retention time of 623 s.

`O=C1CC(c2noc(-c3ccccc3)n2)CN1c1ccccc1` (centres undefined): the RP-LC retention time was 921 s.

`OCC1CN(c2ncccn2)CC12CCN(Cc1c[nH]c3ccccc13)CC2` (centres undefined) displayed an RP-LC retention time of 579 s.

Molecule `O=C(CCC[C@@H]1[C@H]2CCCN3CCC[C@@H](CN1C(=O)c1cc(F)cc(F)c1)[C@@H]23)N1CCOCC1` showed an RP-LC retention time of 605 s.

In the case of `O=C(CN1C(=O)NC(c2ccc(Cl)cc2)C2=C1COC2=O)NCc1ccc(F)cc1` (centres undefined), the RP-LC retention time is 771 s.

For the molecule `CCc1ccccc1NC(=O)c1cc(C)n2nccc2n1`, the RP-LC retention time was found to be 1030 s.

`C=CCNC(=O)Cc1nnc2cc(-c3nc(C4CC4)no3)ccn12` returned an RP-LC retention time of 662 s.

Regarding `COc1ccccc1N1C(=O)CC(N2CCC(C(N)=O)CC2)C1=O` (centres undefined), the RP-LC retention time was determined as 547 s.

For the molecule `CCCOc1cccc2c1CCN(Cc1ccc(F)cc1)C2=O`, the RP-LC retention time was 1040 s.

`CC(C)c1c(C2CCN(C(=O)c3cc4ccccc4[nH]3)CC2)noc1N` returned an RP-LC retention time of 824 s.

As for `COCc1cc(=O)n(CC(=O)NCc2ccccc2)c(N)n1`, the RP-LC retention time was found to be 595 s.

Take `COc1cc(OC)c(NC(=O)N2CCC(n3c(C(F)(F)F)nc4cccnc43)CC2)cc1Cl`: the RP-LC retention time came to 956 s.

With `CN1C(=O)COc2ccc(-c3csc(NC(=O)c4cccnc4)n3)cc21`, the RP-LC retention time amounted to 733 s.

In the case of `Cc1ccccc1NC(=O)CSc1ccc(N2CCCC(C(=O)NC3CC3)C2)nn1` (centres undefined), the RP-LC retention time was found to be 637 s.

The molecule `CCc1noc(NC(C)=O)c1-c1ccc(C)c(S(=O)(=O)Nc2cc(Cl)c(OC)cc2OC)c1` registered an RP-LC retention time of 859 s.

Take `CCOC(=O)c1ccccc1NC(=O)N1CCC2(CC1)NC(=O)c1ccccc1O2`: the RP-LC retention time was 922 s.

Molecule `O=S1(=O)C[C@H](N2CCN(c3ccccn3)CC2)[C@@H](S(=O)(=O)c2cccs2)C1` came in with an RP-LC retention time of 586 s.

For the molecule `COc1ccc(-c2cn3c(CC(=O)Nc4ccc(C)cn4)csc3n2)cc1OC`, the RP-LC retention time turned out to be 653 s.

For the molecule `CCN1C(=O)CCc2cc(NS(=O)(=O)Cc3cccc(Cl)c3)ccc21`, the RP-LC retention time is 846 s.

For the molecule `Cc1cccc(S(=O)(=O)Nc2ccc3c(c2)CCC(=O)N3C)c1`, the RP-LC retention time amounted to 758 s.

For the molecule `CCn1c(C(=O)NCCN2CCCCCC2)c(N2CCCC2=O)c2cc(F)ccc21`, the RP-LC retention time was determined as 664 s.

`CNC(=O)N1CCCC1c1nc(C2CN(C(=O)c3cccn3C)C2)no1` (centres undefined) gave an RP-LC retention time of 629 s.

Molecule `C[C@H]1CN(C(=O)NC2CCCCC2)C[C@@H]1c1nc(-c2cccnc2)no1` had an RP-LC retention time of 784 s.

For the molecule `CC(C)Oc1ccc(-c2noc(CN3C(=O)COc4cc(C(C)(C)C)ccc43)n2)cc1`, the RP-LC retention time was 1370 s.

`CCOC(=O)C1=C(c2ccccc2)NC(SCC)=C(C#N)C1c1cccnc1` (centres undefined): the RP-LC retention time turned out to be 650 s.

As for `OCCNCc1ccc(-c2cc(Cl)cc(Cl)c2)o1`, the RP-LC retention time turned out to be 676 s.

`Cc1nnc2n1CCN(C(=O)c1cc(-c3ccccc3)n[nH]1)C2` showed an RP-LC retention time of 608 s.

In turn, `CCCn1c(C)cnc1CC1CCN(S(=O)(=O)c2ccc3c(c2)CCC3)C1` (centres undefined) showed an RP-LC retention time of 730 s.

The molecule `O=C(Cc1ccsc1)N1CCC(n2c(-c3ccoc3)nc3cccnc32)C1` (centres undefined) showed an RP-LC retention time of 811 s.

For `CC(C)CCNC(=O)C1CCN(c2cnn(Cc3ccccc3)c(=O)c2)CC1`, the RP-LC retention time was 790 s.

Consider `Cc1ccc(N2CCn3c2nc2c3c(=O)n(CC(=O)O)c(=O)n2C)cc1C`, for which the RP-LC retention time stood at 771 s.

As to `Cc1cc(C)n(CCC(=O)N2CCC(n3c(C)cnc3C)C2)n1` (centres undefined), the RP-LC retention time was 563 s.

As to `COC(=O)CNC(=O)Cc1c(C)nn(-c2nc(-c3ccc(Cl)cc3)cs2)c1C`, the RP-LC retention time was 1010 s.

On to `Cc1ccc(-c2c(C#N)c(N)nc(SCC(=O)NCc3ccccc3)c2C#N)cc1`, for which the RP-LC retention time came to 844 s.

`CCCCCOc1ccc(C(=O)CCNC(Cc2c[nH]c3ccccc23)C(=O)O)cc1` (centres undefined) registered an RP-LC retention time of 787 s.

`Cc1cc(C(=O)N2CC(n3cc(COc4ccc(F)cc4)nn3)C2)n(C)n1` registered an RP-LC retention time of 637 s.

For the molecule `CN1CCCN(C(=O)CCc2ccc3c(ccn3C)c2)CC1`, the RP-LC retention time came out at 605 s.

Take `COc1cc(NC(=O)Cn2nc(N(C)C)c3ccccc3c2=O)cc(OC)c1`: the RP-LC retention time is 836 s.

On to `COCCN1C(=O)CCc2cc(NS(=O)(=O)c3ccc4c(c3)CCC4)ccc21`, for which the RP-LC retention time came out at 854 s.

On to `CCOC(=O)c1c(C)n(C)c2c1cc(O)c1ccccc12`, for which the RP-LC retention time is 945 s.

`COc1ccccc1Cc1nc(-c2ccccc2)nn(C2OC(COC(C)=O)C(OC(C)=O)C(OC(C)=O)C2OC(C)=O)c1=S` (centres undefined) gave an RP-LC retention time of 1190 s.

For `CC(C)n1cnc(S(=O)(=O)N2CCC(C(=O)N3CCN(C(=O)c4ccco4)CC3)CC2)c1`, the RP-LC retention time is 636 s.

As for `O=C(NCCN1CCOCC1)c1ccc(-c2c(-c3ccc(F)cc3)ncn2C2CCCC2)o1`, the RP-LC retention time was found to be 592 s.

For `CC(C)CN1CCN(C(=O)CN2CCN(Cc3ccc(F)cc3)C2=O)CC1`, the RP-LC retention time was found to be 602 s.

In turn, `CCCNC(=O)N1CCN(Cc2nc3cccnc3n2-c2ccc(CC)cc2)CC1` returned an RP-LC retention time of 641 s.

The molecule `COCCn1cc(CCNC(=O)Nc2cccc(Cl)c2F)c2cccnc21` returned an RP-LC retention time of 798 s.

Consider `CCCn1nc(-c2nc(-c3cccc(Cl)c3)no2)ccc1=O`, for which the RP-LC retention time was found to be 1150 s.

Consider `CCc1cccc(NC(=O)Cn2nc3cc(C)nc(Nc4ccc(C)cc4)n3c2=O)c1`, for which the RP-LC retention time stood at 1140 s.

`Cc1ccn2cc(C(=O)NCc3ccccc3F)nc2c1` displayed an RP-LC retention time of 628 s.

On to `CC(=O)N1CCc2c([nH]c3ccccc23)C12C(=O)N(C)c1ccc(Br)cc12` (centres undefined), for which the RP-LC retention time amounted to 857 s.

On to `O=C(CCc1csc(NC(=O)NC2CCCCC2)n1)NCc1cccs1`, for which the RP-LC retention time stood at 711 s.

For `CCOc1ccc(NC(=O)N2CCC(c3cc(N)on3)CC2)cc1`, the RP-LC retention time worked out at 690 s.

In turn, `CCOC(=O)C1=C(CN2CCN(Cc3ccc4c(c3)OCO4)CC2)NC(=O)NC1c1ccc(C)cc1` (centres undefined) returned an RP-LC retention time of 585 s.

On to `CNC(=O)[C@@H]1CN(C(=O)c2noc(C)c2COC)C[C@H]1c1nc(C)no1`, for which the RP-LC retention time was 619 s.

Take `CCc1nc2ccc(CCC(=O)NCCCc3ccccc3)cc2[nH]1`: the RP-LC retention time is 614 s.

For `Cc1ccccc1CNC(=O)Cn1cccc1-c1nnc(C2CCC2)o1`, the RP-LC retention time is 920 s.

Turning to `CCSc1nnc(NC(=O)CNC(=O)c2ccc(=O)[nH]c2)s1`, the RP-LC retention time was 571 s.

Consider `CCCc1cc(N2CCN(C(=O)c3ccc(N(C)C)cc3)CC2)nc2nnc(CC)n12`, for which the RP-LC retention time stood at 649 s.

Turning to `C=CCn1c2ccccc2c2nnc(SCC(=O)Nc3nc(-c4ccccc4)cs3)nc21`, the RP-LC retention time came to 1050 s.

Molecule `O=C1[C@H]2CN(Cc3ccc(Cl)cc3)C[C@H]2C(=O)N1CCN1CCc2ccccc2C1` came in with an RP-LC retention time of 740 s.

On to `CCS(=O)(=O)N1CC(=O)N(c2ccc(F)cc2C)C(C)(C(=O)NCc2ccccc2)C1` (centres undefined), for which the RP-LC retention time was found to be 818 s.

In the case of `CCNc1nc(-c2nnc(-c3cccc(C)c3)o2)nc2ccccc12`, the RP-LC retention time was found to be 932 s.

For `COc1cc(Nc2ncc3c(n2)-c2ccc(Cl)cc2C(c2c(F)cccc2OC)=NC3)ccc1C(=O)O`, the RP-LC retention time is 919 s.

Consider `O=C([C@@H]1C[C@H](F)CN1S(=O)(=O)c1ccc(F)cc1F)N1CCOCC1`, for which the RP-LC retention time was determined as 692 s.

`COCCCNC(=O)N1CCCN(c2nc3cc(F)ccc3n3cccc23)CC1`: the RP-LC retention time was 613 s.

`CC(C)(C)c1noc(-c2ccc(=O)n(Cc3cccc(Cl)c3)n2)n1` showed an RP-LC retention time of 1150 s.

For the molecule `Cc1cc(NC(=O)Cn2cnc(-c3cccs3)cc2=O)sn1`, the RP-LC retention time came to 654 s.

On to `O=C1CN(S(=O)(=O)c2cccnc2)C2(CCCC2)CN1CC1CC1`, for which the RP-LC retention time is 746 s.

For the molecule `CCc1nn2c(CNS(=O)(=O)Cc3cccc(Cl)c3)c(-c3ccccc3)nc2s1`, the RP-LC retention time is 1010 s.
